Experimental data from publication PMC7177897, “Benzylaminoethyureido-Tailed Benzenesulfonamides: Design, Synthesis, Kinetic and X-ray Investigations on Human Carbonic Anhydrases” (International Journal of Molecular Sciences, 2020).

Experiments:
hCA XII = target: T1, hCA XII (Homo sapiens, UniProt O43570); assay: stopped-flow CO2 hydration assay; format: biochemical
T1 construct: gene CA12; recombinant, made by the authors as in earlier publications
Description: stopped-flow CO2 hydration assay on hCA XII

hCA I = target: T2, hCA I (Homo sapiens, UniProt P00915); assay: stopped-flow CO2 hydration assay; format: biochemical
T2 construct: gene CA1; crystals from hCA I purchased from Sigma-Aldrich, residues 4-260 visible, two monomers per asymmetric unit
Description: stopped-flow CO2 hydration assay on hCA I

hCA II = target: T3, hCA II (Homo sapiens, UniProt P00918); assay: stopped-flow CO2 hydration assay; format: biochemical
T3 construct: gene CA2; recombinant, made by the authors as in earlier publications; cytosolic isoform
Description: stopped-flow CO2 hydration assay on hCA II

hCA IX = target: T4, hCA IX (Homo sapiens, UniProt Q16790); assay: stopped-flow CO2 hydration assay; format: biochemical
T4 construct: gene CA9; recombinant, made by the authors as in earlier publications
Description: stopped-flow CO2 hydration assay on hCA IX

[1] = stopped-flow CO2 hydration assay; format: biochemical, Homo sapiens; details: read-out: hCA I

T2 sequence (P00915 2-261): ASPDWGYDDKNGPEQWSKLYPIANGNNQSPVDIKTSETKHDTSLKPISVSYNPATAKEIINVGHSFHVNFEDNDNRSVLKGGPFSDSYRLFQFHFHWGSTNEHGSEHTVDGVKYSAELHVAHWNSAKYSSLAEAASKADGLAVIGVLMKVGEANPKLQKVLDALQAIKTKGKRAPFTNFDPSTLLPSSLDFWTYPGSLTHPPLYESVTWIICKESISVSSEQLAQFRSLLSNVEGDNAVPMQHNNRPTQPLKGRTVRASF
T1 sequence (O43570 25-354 limits assumed): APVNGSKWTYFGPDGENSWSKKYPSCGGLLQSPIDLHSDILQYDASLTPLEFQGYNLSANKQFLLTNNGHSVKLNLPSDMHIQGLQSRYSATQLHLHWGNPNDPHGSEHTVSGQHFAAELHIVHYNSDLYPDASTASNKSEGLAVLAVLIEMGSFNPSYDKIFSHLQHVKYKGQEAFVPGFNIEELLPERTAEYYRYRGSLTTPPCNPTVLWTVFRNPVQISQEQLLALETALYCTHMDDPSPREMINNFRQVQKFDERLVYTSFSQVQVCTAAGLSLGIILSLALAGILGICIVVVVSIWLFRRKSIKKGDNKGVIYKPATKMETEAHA

SMILES | Ki (hCA XII) [nM] | Ki (hCA I) [nM] | Ki (hCA II) [nM] | Ki (hCA IX) [nM] | Ki [1] [nM]
COc1cc([N+](=O)[O-])ccc1CNCCNC(=O)Nc1ccc(S(N)(=O)=O)cc1 [compound 23, 4-(3-(2-((2-methoxy-4-nitrobenzyl)amino)ethyl)ureido)benzenesulfonamide] | 53.6 | 788 | 82.4 | 291 | –
NS(=O)(=O)c1cccc(NC(=O)NCCNCc2ccc(F)cc2)c1 [compound 28, 3-(3-(2-((4-fluorobenzyl)amino)ethyl)ureido) benzenesulfonamide] | 71.3 | 868 | 53.8 | 4210 | –
NS(=O)(=O)c1ccc(NC(=O)NCCNCc2ccc(-c3ccccc3)cc2)cc1 [compound 25, 4-(3-(2-(([1,1′-biphenyl]-4-ylmethyl)amino)ethyl)ureido) benzenesulfonamide] | 63.7 | 782 | 63.2 | 1150 | –
NS(=O)(=O)c1ccc(NC(=O)NCCNCc2ccccc2F)cc1 [compound 19, 4-(3-(2-((2-fluorobenzyl)amino)ethyl)ureido) benzenesulfonamide] | 58.3 | 24.6 | 3.9 | 20.3 | –
NS(=O)(=O)c1ccc(NC(=O)NCCNCc2ccc(Br)cc2O)cc1 [compound 24, 4-(3-(2-((4-bromo-2-hydroxybenzyl)amino)ethyl)ureido) benzenesulfonamide] | 97.6 | 138 | 5.3 | 116 | –
NS(=O)(=O)c1cccc(NC(=O)NCCNCc2ccc(Cl)cc2)c1 [compound 27, 3-(3-(2-((4-chlorobenzyl)amino)ethyl)ureido) benzenesulfonamide] | 228 | 702 | 36.9 | 3380 | –
NS(=O)(=O)c1cccc(NC(=O)NCCNCc2ccccc2)c1 [compound 26, 3-(3-(2-(benzylamino)ethyl)ureido)benzenesulfonamide] | 772 | 928 | 76.3 | > 10000 | –
NS(=O)(=O)c1ccc(NC(=O)NCCNCc2ccc(O)cc2)cc1 [compound 20, 4-(3-(2-((4-hydroxybenzyl)amino)ethyl)ureido) benzenesulfonamide] | 75.8 | 781 | 267 | 974 | –
NS(=O)(=O)c1ccc(NC(=O)NCCNCc2ccccc2)cc1 [compound 16, 4-(3-(2-(benzylamino)ethyl)ureido) benzenesulfonamide] | 54.5 | 552 | 350 | 1350 | –
NS(=O)(=O)c1ccc(NC(=O)NCCNCc2ccc(Cl)cc2)cc1 [compound 17, 4-(3-(2-((4-chlorobenzyl)amino)ethyl)ureido) benzenesulfonamide] | 32 | 582 | 127 | 458 | –
CN(C)c1ccc(CNCCNC(=O)Nc2ccc(S(N)(=O)=O)cc2)cc1 [compound 22, 4-(3-(2-((4-(dimethylamino)benzyl)amino)ethyl)ureido) benzenesulfonamide] | 264 | 1510 | 73.2 | 343 | –
NS(=O)(=O)c1ccc(NC(=O)NCCNCc2ccc(F)cc2)cc1 [compound 18, 4-(3-(2-((4-fluorobenzyl)amino)ethyl)ureido) benzenesulfonamide] | 53.2 | 725 | 9.2 | 30.1 | –
NS(=O)(=O)c1ccc(NC(=O)NCCNCc2ccc([N+](=O)[O-])cc2)cc1 [compound 21, 4-(3-(2-((4-nitrobenzyl)amino)ethyl)ureido) benzenesulfonamide] | 77.5 | 527 | 96.1 | 317 | –

Next, values leading:

Ki (hCA XII) [nM] | Ki (hCA I) [nM] | Ki (hCA II) [nM] | Ki (hCA IX) [nM] | Ki [1] [nM] | SMILES
78 | 8910 | 565 | 1200 | – | CN(C)c1ccc(CNCCNC(=O)Nc2cccc(S(N)(=O)=O)c2)cc1 [compound 32, 3-(3-(2-((4-(dimethylamino)benzyl)amino)ethyl)ureido) benzenesulfonamide]
317 | 6250 | 166 | 3510 | – | NS(=O)(=O)c1cccc(NC(=O)NCCNCc2ccc(O)cc2)c1 [compound 30, 3-(3-(2-((4-hydroxybenzyl)amino)ethyl)ureido) benzenesulfonamide]
53.1 | > 10000 | 90.2 | 2610 | – | COc1cc([N+](=O)[O-])ccc1CNCCNC(=O)Nc1cccc(S(N)(=O)=O)c1 [compound 33, 3-(3-(2-((2-methoxy-4-nitrobenzyl)amino)ethyl)ureido)benzenesulfonamide]
7.2 | 654 | 2.8 | 1920 | – | NS(=O)(=O)c1cccc(NC(=O)NCCNCc2ccc(Br)cc2O)c1 [compound 34, 3-(3-(2-((4-bromo-2-hydroxybenzyl)amino)ethyl)ureido) benzenesulfonamide]
60.7 | 5850 | 168 | 2320 | – | NS(=O)(=O)c1cccc(NC(=O)NCCNCc2ccc([N+](=O)[O-])cc2)c1 [compound 31, 3-(3-(2-((4-nitrobenzyl)amino)ethyl)ureido) benzenesulfonamide]
688 | > 10000 | 456 | – | > 10000 | NS(=O)(=O)c1cccc(NC(=O)NCCNCc2ccc(-c3ccccc3)cc2)c1 [compound 35, 3-(3-(2-(([1,1’-biphenyl]-4-ylmethyl)amino)ethyl)ureido) benzenesulfonamide]
479 | 728 | 33.4 | > 10000 | – | NS(=O)(=O)c1cccc(NC(=O)NCCNCc2ccccc2F)c1 [compound 29, 3-(3-(2-((2-fluorobenzyl)amino)ethyl)ureido) benzenesulfonamide]
